Source: patent US20250041272A1, “COMPOSITIONS AND METHODS FOR TREATING CANCER VIA PTP1B INHIBITION” (priority 2021, published 2025)

What was measured:
[1] = system: GEMM6 tumors; assay: GEMM6 melanoma tumor model; type: in vivo
Experimental: Tumor implantation, treatment and harvest. For animal studies, 1*10^5 B16F10 luciferase-tagged melanoma cells, 1*10^6 GEMM6 melanoma cells or 2*10^6 LCC cells were implanted subcutaneously into C57BL/6J mice (randomized, both males and females, 000664 The Jackson laboratory). When indicated, mice received intraperitoneal injections 7 days after implantation with 100 μl of 5 mg/kg cisplatin (Tocris), 100 μl of 10 mg/kg BVT948 (Tocris) or 100 μl of 30 mg/kg of vemurafenib. […]
(§1) Immunohistochemistry analysis. Immunohistochemistry assay was carried out in formalin-fixed, paraffin-embedded 4 μm sections using primary antibodies against F4:80 (AbD Serotec), CD11b (Abcam), CD4 (eBioscience) or CD8a (eBioscience) on a Discovery Ultra Automated IHC staining system (Ventana). Sections were then imaged using a ScanScope XT microscope (Aperio) and quantified using Aperio software.

[2] = system: LLC tumors; assay: Subcutaneous LLC tumor model; type: in vivo, mouse
Experimental: Tumor implantation, treatment and harvest. For animal studies, 1*10^5 B16F10 luciferase-tagged melanoma cells, 1*10^6 GEMM6 melanoma cells or 2*10^6 LCC cells were implanted subcutaneously into C57BL/6J mice (randomized, both males and females, 000664 The Jackson laboratory). When indicated, mice received intraperitoneal injections 7 days after implantation with 100 μl of 5 mg/kg cisplatin (Tocris), 100 μl of 10 mg/kg BVT948 (Tocris) or 100 μl of 30 mg/kg of vemurafenib. 5 mice were used per experimental group and tumors were harvested when they reached 1.5 cm in any direction.
as §1

[3] = BVT948 monotherapy, treatment from palpable tumors (50 mm^3), 8 mice per arm

Substance: BVT948
- decrease in GEMM6 tumor growth, combination ([1]; BVT948 in combination with Vemurafenib): roughly 50%
- tumor viability (H&E staining) ([1]; BVT948 monotherapy, GEMM6 tumors): not significantly changed
- mice completely regressing and immune to rechallenge 1 month later [1, 3]: 3/8
- mice showing reductions in tumor growth [1, 3]: 6/8
- mice that died (most likely drug toxicity or autoimmune response) [1, 3]: 2/8
- GEMM6 tumor growth, monotherapy vs vehicle ([1]; larger tumors (200 mm^3), BVT948 10 mg/kg or Vemurafenib 30 mg/kg intraperitoneal): did not significantly reduce
- LLC tumor growth reduction, monotherapy ([2]; BVT948 10 mg/kg or Cisplatin 5 mg/kg intraperitoneal, treatment from 50 mm^3): 30%
- decrease in LLC tumor growth, combination ([2]; BVT948 in combination with Cisplatin): roughly 50%
- tumor viability (H&E staining) ([2]; BVT948 monotherapy, LLC tumors): not significantly changed
